From US8575189B2, “Tacrolimus preparation for external applications” (Takata Seiyaku Co., Ltd., priority 2008, dated 2013)

Assay: Solubility of tacrolimus in triacetin
Format: physicochemical
Conditions: free form, in triacetin at 25° C.
Description: [drawing 2] (chemical name: glycerin triacetate). The properties of triacetin are described in Iyakuhin Tenkabutsu Kikaku 2003 and Iyakuhin Tenkabutsu Jiten 2007 (Yakuji Nippo), which are incorporated herein by reference. Tacrolimus in a free form may dissolve in triacetin at 25° C. in the ratio of about 12.5 g/100 g. Preferably, the external preparation of the present invention comprises triacetin at 0.1 to 30% by weight, more preferably 1.0 to 20% by weight, still more preferably 3.0 to 6.0% by weight, most preferably 4.0 to 5.0% by weight for the total amount of the preparation.

dissolve in triacetin (ratio): about 12.5 g/100 g
Substance: 17-aryl-1,14-dihydroxy-12-[2-(4-hydroxy-3-methoxycyclohexyl)-1-methylbinyl]-23,25-dimethoxy-13,19,21,27-tetramethyl-11,28-dioxa-4-azatricyclo [22.3.1.04, 9] octacos-18-en-2,3,10,16-tetraone [Tacrolimus]
